Measured values: US3951955A, “Penicillins substituted with heterocyclic groups” (Sumitomo Chemical Company, Limited, priority 1970, dated 1976)
In brackets after ≈: the same amount, converted by molar mass.

tested on: Proteus miravilis 2425; test: minimal inhibitory concentration, agar dilution method (in vitro); format: cell-based
From the text: (§1) When determined according to the agar dilution method, the penicillins [I] afford the minimal inhibitory concentrations as shown in the following Table 1: […]

Structure (SMILES) | MIC [µg/mL]
COc1c(C(=O)NC(C(=O)N[C@@H]2C(=O)N3[C@@H]2SC(C)(C)[C@@H]3C(=O)O)c2ccccc2)cnc2ccccc12 (stereo partly drawn) [Example 14] | 12.5 (≈ 23.4 µM)
CC1(C)S[C@@H]2[C@H](NC(=O)C(NC(=O)c3cnc4cc(Cl)ccc4c3O)c3ccccc3)C(=O)N2[C@H]1C(=O)O (stereo partly drawn) [Example 15] | 1.56 (≈ 2.81 µM)
CCOC(=O)Oc1c(C(=O)NC(C(=O)N[C@@H]2C(=O)N3[C@@H]2SC(C)(C)[C@@H]3C(=O)O)c2ccccc2)cnc2cc(Cl)ccc12 (stereo partly drawn) [Example 16] | 3.13 (≈ 4.99 µM)
CCOC(=O)Oc1c(C(=O)NC(C(=O)N[C@@H]2C(=O)N3[C@@H]2SC(C)(C)[C@@H]3C(=O)O)c2ccccc2)cnc2cc(OC)ccc12 (stereo partly drawn) [Example 17] | 1.56 (≈ 2.51 µM)
COc1ccc2c(O)c(C(=O)NC(C(=O)N[C@@H]3C(=O)N4[C@@H]3SC(C)(C)[C@@H]4C(=O)O)c3ccccc3)cnc2c1 (stereo partly drawn) [Example 18] | 1.56 (≈ 2.83 µM)
COc1ccc2ncc(C(=O)NC(C(=O)N[C@@H]3C(=O)N4[C@@H]3SC(C)(C)[C@@H]4C(=O)O)c3ccccc3)c(O)c2c1 (stereo partly drawn) [Example 19] | 1.56 (≈ 2.83 µM)
CC1(C)S[C@@H]2[C@H](NC(=O)C(NC(=O)c3cnc4cc(C(F)(F)F)ccc4c3O)c3ccccc3)C(=O)N2[C@H]1C(=O)O (stereo partly drawn) [Example 20] | 3.13 (≈ 5.32 µM)
CC1(C)S[C@@H]2[C@H](NC(=O)C(NC(=O)c3cnc4cc([N+](=O)[O-])ccc4c3O)c3ccccc3)C(=O)N2[C@H]1C(=O)O (stereo partly drawn) [Example 21] | 6.25 (≈ 11.1 µM)
CC1(C)S[C@@H]2[C@H](NC(=O)C(NC(=O)c3cnc4cc(S(C)(=O)=O)ccc4c3O)c3ccccc3)C(=O)N2[C@H]1C(=O)O (stereo partly drawn) [Example 22] | 3.13 (≈ 5.23 µM)

tested on: Staphylococcus aureus 209P; test: as above; format: cell-based
From the text: as §1

Structure (SMILES) | MIC [µg/mL]
COc1c(C(=O)NC(C(=O)N[C@@H]2C(=O)N3[C@@H]2SC(C)(C)[C@@H]3C(=O)O)c2ccccc2)cnc2ccccc12 (stereo partly drawn) [Example 14] | 0.2 (≈ 0.374 µM)
CC1(C)S[C@@H]2[C@H](NC(=O)C(NC(=O)c3cnc4cc(Cl)ccc4c3O)c3ccccc3)C(=O)N2[C@H]1C(=O)O (stereo partly drawn) [Example 15] | 0.2 (≈ 0.36 µM)
CCOC(=O)Oc1c(C(=O)NC(C(=O)N[C@@H]2C(=O)N3[C@@H]2SC(C)(C)[C@@H]3C(=O)O)c2ccccc2)cnc2cc(Cl)ccc12 (stereo partly drawn) [Example 16] | 0.2 (≈ 0.319 µM)
CCOC(=O)Oc1c(C(=O)NC(C(=O)N[C@@H]2C(=O)N3[C@@H]2SC(C)(C)[C@@H]3C(=O)O)c2ccccc2)cnc2cc(OC)ccc12 (stereo partly drawn) [Example 17] | 0.2 (≈ 0.321 µM)
COc1ccc2c(O)c(C(=O)NC(C(=O)N[C@@H]3C(=O)N4[C@@H]3SC(C)(C)[C@@H]4C(=O)O)c3ccccc3)cnc2c1 (stereo partly drawn) [Example 18] | 0.39 (≈ 0.708 µM)
COc1ccc2ncc(C(=O)NC(C(=O)N[C@@H]3C(=O)N4[C@@H]3SC(C)(C)[C@@H]4C(=O)O)c3ccccc3)c(O)c2c1 (stereo partly drawn) [Example 19] | 0.39 (≈ 0.708 µM)
CC1(C)S[C@@H]2[C@H](NC(=O)C(NC(=O)c3cnc4cc(C(F)(F)F)ccc4c3O)c3ccccc3)C(=O)N2[C@H]1C(=O)O (stereo partly drawn) [Example 20] | 0.39 (≈ 0.663 µM)
CC1(C)S[C@@H]2[C@H](NC(=O)C(NC(=O)c3cnc4cc([N+](=O)[O-])ccc4c3O)c3ccccc3)C(=O)N2[C@H]1C(=O)O (stereo partly drawn) [Example 21] | 0.39 (≈ 0.69 µM)
CC1(C)S[C@@H]2[C@H](NC(=O)C(NC(=O)c3cnc4cc(S(C)(=O)=O)ccc4c3O)c3ccccc3)C(=O)N2[C@H]1C(=O)O (stereo partly drawn) [Example 22] | 0.39 (≈ 0.651 µM)

tested on: Escherichia coli NIHJ; test: as above; format: cell-based
From the text: as §1

Structure (SMILES) | MIC [µg/mL]
COc1c(C(=O)NC(C(=O)N[C@@H]2C(=O)N3[C@@H]2SC(C)(C)[C@@H]3C(=O)O)c2ccccc2)cnc2ccccc12 (stereo partly drawn) [Example 14] | 25 (≈ 46.8 µM)
CC1(C)S[C@@H]2[C@H](NC(=O)C(NC(=O)c3cnc4cc(Cl)ccc4c3O)c3ccccc3)C(=O)N2[C@H]1C(=O)O (stereo partly drawn) [Example 15] | 3.13 (≈ 5.64 µM)
CCOC(=O)Oc1c(C(=O)NC(C(=O)N[C@@H]2C(=O)N3[C@@H]2SC(C)(C)[C@@H]3C(=O)O)c2ccccc2)cnc2cc(Cl)ccc12 (stereo partly drawn) [Example 16] | 6.25 (≈ 9.97 µM)
CCOC(=O)Oc1c(C(=O)NC(C(=O)N[C@@H]2C(=O)N3[C@@H]2SC(C)(C)[C@@H]3C(=O)O)c2ccccc2)cnc2cc(OC)ccc12 (stereo partly drawn) [Example 17] | 3.13 (≈ 5.03 µM)
COc1ccc2c(O)c(C(=O)NC(C(=O)N[C@@H]3C(=O)N4[C@@H]3SC(C)(C)[C@@H]4C(=O)O)c3ccccc3)cnc2c1 (stereo partly drawn) [Example 18] | 6.25 (≈ 11.4 µM)
COc1ccc2ncc(C(=O)NC(C(=O)N[C@@H]3C(=O)N4[C@@H]3SC(C)(C)[C@@H]4C(=O)O)c3ccccc3)c(O)c2c1 (stereo partly drawn) [Example 19] | 6.25 (≈ 11.4 µM)
CC1(C)S[C@@H]2[C@H](NC(=O)C(NC(=O)c3cnc4cc(C(F)(F)F)ccc4c3O)c3ccccc3)C(=O)N2[C@H]1C(=O)O (stereo partly drawn) [Example 20] | 12.5 (≈ 21.2 µM)
CC1(C)S[C@@H]2[C@H](NC(=O)C(NC(=O)c3cnc4cc([N+](=O)[O-])ccc4c3O)c3ccccc3)C(=O)N2[C@H]1C(=O)O (stereo partly drawn) [Example 21] | 12.5 (≈ 22.1 µM)
CC1(C)S[C@@H]2[C@H](NC(=O)C(NC(=O)c3cnc4cc(S(C)(=O)=O)ccc4c3O)c3ccccc3)C(=O)N2[C@H]1C(=O)O (stereo partly drawn) [Example 22] | 12.5 (≈ 20.9 µM)

tested on: Pseudomonas aeruginosa 104; test: as above; format: cell-based
From the text: as §1

Structure (SMILES) | MIC [µg/mL]
COc1c(C(=O)NC(C(=O)N[C@@H]2C(=O)N3[C@@H]2SC(C)(C)[C@@H]3C(=O)O)c2ccccc2)cnc2ccccc12 (stereo partly drawn) [Example 14] | 12.5 (≈ 23.4 µM)
CC1(C)S[C@@H]2[C@H](NC(=O)C(NC(=O)c3cnc4cc(Cl)ccc4c3O)c3ccccc3)C(=O)N2[C@H]1C(=O)O (stereo partly drawn) [Example 15] | 3.13 (≈ 5.64 µM)
CCOC(=O)Oc1c(C(=O)NC(C(=O)N[C@@H]2C(=O)N3[C@@H]2SC(C)(C)[C@@H]3C(=O)O)c2ccccc2)cnc2cc(Cl)ccc12 (stereo partly drawn) [Example 16] | 3.13 (≈ 4.99 µM)
CCOC(=O)Oc1c(C(=O)NC(C(=O)N[C@@H]2C(=O)N3[C@@H]2SC(C)(C)[C@@H]3C(=O)O)c2ccccc2)cnc2cc(OC)ccc12 (stereo partly drawn) [Example 17] | 3.13 (≈ 5.03 µM)
COc1ccc2c(O)c(C(=O)NC(C(=O)N[C@@H]3C(=O)N4[C@@H]3SC(C)(C)[C@@H]4C(=O)O)c3ccccc3)cnc2c1 (stereo partly drawn) [Example 18] | 6.25 (≈ 11.4 µM)
COc1ccc2ncc(C(=O)NC(C(=O)N[C@@H]3C(=O)N4[C@@H]3SC(C)(C)[C@@H]4C(=O)O)c3ccccc3)c(O)c2c1 (stereo partly drawn) [Example 19] | 6.25 (≈ 11.4 µM)
CC1(C)S[C@@H]2[C@H](NC(=O)C(NC(=O)c3cnc4cc(C(F)(F)F)ccc4c3O)c3ccccc3)C(=O)N2[C@H]1C(=O)O (stereo partly drawn) [Example 20] | 6.25 (≈ 10.6 µM)
CC1(C)S[C@@H]2[C@H](NC(=O)C(NC(=O)c3cnc4cc([N+](=O)[O-])ccc4c3O)c3ccccc3)C(=O)N2[C@H]1C(=O)O (stereo partly drawn) [Example 21] | 12.5 (≈ 22.1 µM)
CC1(C)S[C@@H]2[C@H](NC(=O)C(NC(=O)c3cnc4cc(S(C)(=O)=O)ccc4c3O)c3ccccc3)C(=O)N2[C@H]1C(=O)O (stereo partly drawn) [Example 22] | 6.25 (≈ 10.4 µM)

tested on: Klebsiella pneumoniae 602; test: as above; format: cell-based
From the text: as §1

Structure (SMILES) | MIC [µg/mL]
COc1c(C(=O)NC(C(=O)N[C@@H]2C(=O)N3[C@@H]2SC(C)(C)[C@@H]3C(=O)O)c2ccccc2)cnc2ccccc12 (stereo partly drawn) [Example 14] | 25 (≈ 46.8 µM)
CC1(C)S[C@@H]2[C@H](NC(=O)C(NC(=O)c3cnc4cc(Cl)ccc4c3O)c3ccccc3)C(=O)N2[C@H]1C(=O)O (stereo partly drawn) [Example 15] | 0.39 (≈ 0.703 µM)
CCOC(=O)Oc1c(C(=O)NC(C(=O)N[C@@H]2C(=O)N3[C@@H]2SC(C)(C)[C@@H]3C(=O)O)c2ccccc2)cnc2cc(Cl)ccc12 (stereo partly drawn) [Example 16] | 0.39 (≈ 0.622 µM)
CCOC(=O)Oc1c(C(=O)NC(C(=O)N[C@@H]2C(=O)N3[C@@H]2SC(C)(C)[C@@H]3C(=O)O)c2ccccc2)cnc2cc(OC)ccc12 (stereo partly drawn) [Example 17] | 0.39 (≈ 0.626 µM)
COc1ccc2c(O)c(C(=O)NC(C(=O)N[C@@H]3C(=O)N4[C@@H]3SC(C)(C)[C@@H]4C(=O)O)c3ccccc3)cnc2c1 (stereo partly drawn) [Example 18] | 0.78 (≈ 1.42 µM)
COc1ccc2ncc(C(=O)NC(C(=O)N[C@@H]3C(=O)N4[C@@H]3SC(C)(C)[C@@H]4C(=O)O)c3ccccc3)c(O)c2c1 (stereo partly drawn) [Example 19] | 0.78 (≈ 1.42 µM)
CC1(C)S[C@@H]2[C@H](NC(=O)C(NC(=O)c3cnc4cc(C(F)(F)F)ccc4c3O)c3ccccc3)C(=O)N2[C@H]1C(=O)O (stereo partly drawn) [Example 20] | 0.39 (≈ 0.663 µM)
CC1(C)S[C@@H]2[C@H](NC(=O)C(NC(=O)c3cnc4cc([N+](=O)[O-])ccc4c3O)c3ccccc3)C(=O)N2[C@H]1C(=O)O (stereo partly drawn) [Example 21] | 0.78 (≈ 1.38 µM)
CC1(C)S[C@@H]2[C@H](NC(=O)C(NC(=O)c3cnc4cc(S(C)(=O)=O)ccc4c3O)c3ccccc3)C(=O)N2[C@H]1C(=O)O (stereo partly drawn) [Example 22] | 0.39 (≈ 0.651 µM)
